Assay results reported in ChEMBL document CHEMBL1201862, “PubChem BioAssay data set” (2004).
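Exposure lasted 48 hours, with cells grown in 96-well plates and compounds tested at five concentrations. GI50 is the concentration that inhibits growth by half.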 Active and inactive are the calls of the source. Cut-off read from the data, not from the text of the source: active = GI50 up to about 1.1 µM and inactive = higher.

How the values were obtained:
Assay in all cases: inhibition of tumour cell growth, NCI panel, 48 h
[1] = tested on: CCRF-CEM
[2] = tested on: HCT-15
[3] = tested on: HL-60
[4] = tested on: Hs-578T
[5] = tested on: LOX IMVI
[6] = tested on: MDA-MB-231
[7] = tested on: NCI-H226
[8] = tested on: NCI/ADR-RES
[9] = tested on: OVCAR-5
[10] = tested on: RXF 393
[11] = tested on: SK-MEL-2
[12] = tested on: SK-MEL-5
[13] = tested on: SNB-19
[14] = tested on: SR
[15] = tested on: T47D
[16] = tested on: U-251
[17] = tested on: UACC-62
[18] = tested on: UO-31
[19] = tested on: HOP-92
[20] = tested on: OVCAR-8

Compound	GI50 [1]	GI50 [2] [µM]	GI50 [3]	GI50 [4]	GI50 [5]	GI50 [6]	GI50 [7]	GI50 [8]	GI50 [9]	GI50 [10]	GI50 [11]	GI50 [12]	GI50 [13]	GI50 [14]	GI50 [15]	GI50 [16]	GI50 [17]	GI50 [18]	GI50 [19]	GI50 [20]
O=c1c(Cl)cc2nc3ccccc3sc-2c1Cl	4.67 µM (inactive)	14.7	10.6 µM (inactive)	22 µM (inactive)	12 µM (inactive)	5.78 µM (inactive)	16.5 µM (inactive)	21.5 µM (inactive)	24.7 µM (inactive)	18.5 µM (inactive)	13.7 µM (inactive)	2.92 µM (inactive)	17 µM (inactive)	4.57 µM (inactive)	5 µM (inactive)	17.6 µM (inactive)	11.5 µM (inactive)	15.3 µM (inactive)	–	–
Cn1/c(=N\N=C(\CNCCO)[C@@H](O)[C@@H]2OC(c3ccccc3)OC[C@H]2O)sc2ccccc21 (some centres not stated)	17.8 µM (inactive)	25.5	–	14.8 µM (inactive)	15.1 µM (inactive)	15.2 µM (inactive)	–	50.7 µM (inactive)	18.2 µM (inactive)	16.1 µM (inactive)	17.7 µM (inactive)	14.9 µM (inactive)	12.8 µM (inactive)	19 µM (inactive)	20.1 µM (inactive)	17.3 µM (inactive)	16.9 µM (inactive)	15.4 µM (inactive)	11 µM (inactive)	19.2 µM (inactive)
COc1ccc(NC(=O)C(=O)Cc2nc3ccc(C(=O)c4ccccc4)cc3nc2O)c([N+](=O)[O-])c1	28.2 µM (inactive)	34	–	> 100 µM (inactive)	25.2 µM (inactive)	23 µM (inactive)	11.5 µM (inactive)	11.5 µM (inactive)	> 100 µM (inactive)	23.1 µM (inactive)	55.1 µM (inactive)	22.6 µM (inactive)	62.8 µM (inactive)	18.3 µM (inactive)	17.2 µM (inactive)	41.9 µM (inactive)	21.3 µM (inactive)	18.2 µM (inactive)	10.8 µM (inactive)	18.8 µM (inactive)
COc1ccc(C2(O)c3ccccc3C(=O)N(C)C2(O)c2ccc(OC)cc2)cc1 (configuration not stated)	51.8 µM (inactive)	40.4	32.6 µM (inactive)	0.396 µM (active)	30.1 µM (inactive)	> 100 µM (inactive)	–	24 µM (inactive)	> 100 µM (inactive)	> 100 µM (inactive)	43.4 µM (inactive)	99.1 µM (inactive)	> 100 µM (inactive)	36.3 µM (inactive)	52.4 µM (inactive)	52.7 µM (inactive)	48.1 µM (inactive)	50.7 µM (inactive)	36.3 µM (inactive)	81.7 µM (inactive)
Fc1ccccc1-c1cc(S)c2cc3c(cc2n1)OCO3	13.4 µM (inactive)	5.65	–	5.24 µM (inactive)	10.9 µM (inactive)	> 56.1 µM (inactive)	19.2 µM (inactive)	4.26 µM (inactive)	> 51.3 µM (inactive)	> 54.2 µM (inactive)	7.69 µM (inactive)	3.63 µM (inactive)	15.2 µM (inactive)	4.34 µM (inactive)	28.1 µM (inactive)	4.33 µM (inactive)	3.71 µM (inactive)	27.5 µM (inactive)	> 45.7 µM (inactive)	17.8 µM (inactive)
NNc1nncc2[nH]cnc12	> 100 µM (inactive)	> 100	35.8 µM (inactive)	> 100 µM (inactive)	–	> 100 µM (inactive)	> 100 µM (inactive)	> 100 µM (inactive)	> 100 µM (inactive)	> 100 µM (inactive)	> 100 µM (inactive)	> 100 µM (inactive)	> 100 µM (inactive)	> 100 µM (inactive)	> 100 µM (inactive)	> 100 µM (inactive)	> 100 µM (inactive)	> 100 µM (inactive)	–	> 100 µM (inactive)
O=C1c2ccccc2-c2c1c1ccccc1c(=O)n2Cc1ccccc1	> 100 µM (inactive)	> 100	> 100 µM (inactive)	43.5 µM (inactive)	> 100 µM (inactive)	50.1 µM (inactive)	> 100 µM (inactive)	> 100 µM (inactive)	> 100 µM (inactive)	–	> 100 µM (inactive)	73.6 µM (inactive)	–	> 100 µM (inactive)	> 100 µM (inactive)	93.8 µM (inactive)	46.6 µM (inactive)	> 100 µM (inactive)	63.1 µM (inactive)	> 100 µM (inactive)
O=C([C@H](O)[C@@H](O)c1cccc(Cl)c1)C12CC3CC(CC(C3)C1)C2	1.14 µM (inactive)	2.24	0.483 µM (active)	2.61 µM (inactive)	1.22 µM (inactive)	2.12 µM (inactive)	4.32 µM (inactive)	2.27 µM (inactive)	3.1 µM (inactive)	2.37 µM (inactive)	1.95 µM (inactive)	4.13 µM (inactive)	1.82 µM (inactive)	2.07 µM (inactive)	2.16 µM (inactive)	1.53 µM (inactive)	1.73 µM (inactive)	1.9 µM (inactive)	–	1.88 µM (inactive)
COc1ccc(/C(=N/N=c2\[nH]c3ccccc3n2Cc2ccccc2)C(=O)O)cc1	3.97 µM (inactive)	12.6	3.19 µM (inactive)	31.7 µM (inactive)	6.89 µM (inactive)	23.3 µM (inactive)	20.2 µM (inactive)	5.19 µM (inactive)	48.5 µM (inactive)	–	28.4 µM (inactive)	15.5 µM (inactive)	25.7 µM (inactive)	3.29 µM (inactive)	14.7 µM (inactive)	11.1 µM (inactive)	8.36 µM (inactive)	25.8 µM (inactive)	11.7 µM (inactive)	21.8 µM (inactive)
O=c1oc2ccccc2cc1-c1nc2ccccc2s1	–	29.6	> 100 µM (inactive)	6.55 µM (inactive)	10.1 µM (inactive)	12 µM (inactive)	14.6 µM (inactive)	10 µM (inactive)	23.3 µM (inactive)	11.3 µM (inactive)	–	19 µM (inactive)	–	0.491 µM (active)	10.7 µM (inactive)	7.35 µM (inactive)	14.6 µM (inactive)	5.83 µM (inactive)	6.65 µM (inactive)	7.74 µM (inactive)
Cn1c(=O)c2nc(CSCc3ccccc3)[nH]c2n(C)c1=O	–	> 100	–	> 100 µM (inactive)	> 100 µM (inactive)	> 100 µM (inactive)	> 100 µM (inactive)	> 100 µM (inactive)	> 100 µM (inactive)	> 100 µM (inactive)	> 100 µM (inactive)	71.6 µM (inactive)	> 100 µM (inactive)	> 100 µM (inactive)	> 100 µM (inactive)	> 100 µM (inactive)	> 100 µM (inactive)	41.1 µM (inactive)	> 100 µM (inactive)	> 100 µM (inactive)
